Test results taken from ChEMBL document CHEMBL5649166, “RIP3 induces apoptosis independent of pronecrotic kinase activity” (Mol Cell, 2014).

Experiments:
[1] = target: Casein kinase I isoform gamma-3 (Homo sapiens) (UniProt Q9Y6M4); assay: Inhibition of human CK1g3 using KRRRAL[pS]VASLPGL as substrate at 1 uM in presence of 32P-ATP by Hotspot assay relative to control; values are per cent of control
[2] = target: ALK tyrosine kinase receptor (Homo sapiens) (UniProt Q9UM73); assay: Inhibition of human ALK using poly[Glu:Tyr] (4:1) as substrate at 1 uM in presence of 32P-ATP by Hotspot assay relative to control; values are per cent of control
ALK tyrosine kinase receptor (Homo sapiens), sequence (Q9UM73 19-1620 limits assumed): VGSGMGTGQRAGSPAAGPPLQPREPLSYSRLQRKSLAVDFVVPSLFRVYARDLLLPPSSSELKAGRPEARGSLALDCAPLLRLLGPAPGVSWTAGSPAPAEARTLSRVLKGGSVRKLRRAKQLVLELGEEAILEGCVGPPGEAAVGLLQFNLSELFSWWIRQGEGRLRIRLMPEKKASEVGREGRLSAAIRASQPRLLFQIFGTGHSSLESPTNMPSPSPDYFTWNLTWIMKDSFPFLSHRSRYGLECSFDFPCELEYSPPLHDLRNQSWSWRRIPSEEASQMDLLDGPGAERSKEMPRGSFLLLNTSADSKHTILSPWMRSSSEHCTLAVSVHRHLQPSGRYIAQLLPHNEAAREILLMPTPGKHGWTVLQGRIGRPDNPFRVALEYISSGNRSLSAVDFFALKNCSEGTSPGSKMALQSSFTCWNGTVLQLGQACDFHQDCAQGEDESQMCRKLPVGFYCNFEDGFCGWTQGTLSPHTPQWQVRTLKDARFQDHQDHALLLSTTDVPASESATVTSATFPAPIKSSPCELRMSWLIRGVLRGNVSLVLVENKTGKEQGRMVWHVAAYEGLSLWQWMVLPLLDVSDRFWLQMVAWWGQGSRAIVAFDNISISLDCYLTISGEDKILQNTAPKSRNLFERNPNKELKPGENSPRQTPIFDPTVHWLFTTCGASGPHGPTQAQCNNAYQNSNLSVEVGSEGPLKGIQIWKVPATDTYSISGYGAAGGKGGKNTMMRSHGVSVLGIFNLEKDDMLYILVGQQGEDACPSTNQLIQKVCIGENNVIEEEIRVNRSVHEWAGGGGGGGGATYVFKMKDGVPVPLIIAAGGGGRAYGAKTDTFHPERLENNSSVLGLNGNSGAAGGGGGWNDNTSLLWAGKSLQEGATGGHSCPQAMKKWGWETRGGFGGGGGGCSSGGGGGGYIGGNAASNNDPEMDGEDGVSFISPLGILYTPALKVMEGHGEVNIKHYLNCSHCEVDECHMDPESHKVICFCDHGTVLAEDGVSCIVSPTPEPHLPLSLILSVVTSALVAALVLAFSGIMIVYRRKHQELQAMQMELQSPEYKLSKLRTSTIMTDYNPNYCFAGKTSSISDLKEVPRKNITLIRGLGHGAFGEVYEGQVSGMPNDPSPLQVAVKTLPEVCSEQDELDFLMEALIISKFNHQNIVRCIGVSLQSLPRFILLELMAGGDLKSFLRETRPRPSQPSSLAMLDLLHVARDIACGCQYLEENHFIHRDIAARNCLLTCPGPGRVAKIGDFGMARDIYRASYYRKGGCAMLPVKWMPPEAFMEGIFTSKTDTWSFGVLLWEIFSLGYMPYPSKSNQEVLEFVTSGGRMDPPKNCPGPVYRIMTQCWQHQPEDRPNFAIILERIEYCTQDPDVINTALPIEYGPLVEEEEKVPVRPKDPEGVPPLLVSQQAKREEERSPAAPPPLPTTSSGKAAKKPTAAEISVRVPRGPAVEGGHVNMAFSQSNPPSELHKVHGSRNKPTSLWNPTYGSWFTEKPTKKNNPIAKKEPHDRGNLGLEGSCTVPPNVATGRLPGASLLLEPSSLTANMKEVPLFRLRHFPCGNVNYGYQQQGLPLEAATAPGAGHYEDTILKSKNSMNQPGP

[3] = target: RAC-gamma serine/threonine-protein kinase (Homo sapiens) (UniProt Q9Y243); assay: Inhibition of human AKT3 using KGSGSGRPRTSSFAEG as substrate at 1 uM in presence of 32P-ATP by Hotspot assay relative to control; values are per cent of control
RAC-gamma serine/threonine-protein kinase (Homo sapiens), sequence (Q9Y243 whole entry): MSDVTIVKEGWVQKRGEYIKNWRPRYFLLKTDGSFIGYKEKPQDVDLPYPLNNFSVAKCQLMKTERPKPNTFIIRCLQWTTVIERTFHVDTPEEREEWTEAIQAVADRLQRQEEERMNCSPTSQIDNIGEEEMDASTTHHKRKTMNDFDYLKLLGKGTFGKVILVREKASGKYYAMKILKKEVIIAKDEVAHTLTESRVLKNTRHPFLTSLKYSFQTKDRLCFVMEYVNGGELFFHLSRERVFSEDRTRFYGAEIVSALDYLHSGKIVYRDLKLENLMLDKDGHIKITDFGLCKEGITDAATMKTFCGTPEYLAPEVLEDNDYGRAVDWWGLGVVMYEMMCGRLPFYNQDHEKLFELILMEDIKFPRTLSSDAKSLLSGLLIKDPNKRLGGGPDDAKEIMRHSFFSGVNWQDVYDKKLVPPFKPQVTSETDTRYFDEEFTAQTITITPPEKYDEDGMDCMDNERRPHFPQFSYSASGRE

[4] = target: T1, Ephrin type-A receptor 1 (Homo sapiens) (UniProt P21709); assay: Residual activity of human EPHA1 using poly[Glu:Tyr] (4:1) as substrate at 1 uM in presence of 32P-ATP by Hotspot assay relative to control
T1 sequence (whole entry): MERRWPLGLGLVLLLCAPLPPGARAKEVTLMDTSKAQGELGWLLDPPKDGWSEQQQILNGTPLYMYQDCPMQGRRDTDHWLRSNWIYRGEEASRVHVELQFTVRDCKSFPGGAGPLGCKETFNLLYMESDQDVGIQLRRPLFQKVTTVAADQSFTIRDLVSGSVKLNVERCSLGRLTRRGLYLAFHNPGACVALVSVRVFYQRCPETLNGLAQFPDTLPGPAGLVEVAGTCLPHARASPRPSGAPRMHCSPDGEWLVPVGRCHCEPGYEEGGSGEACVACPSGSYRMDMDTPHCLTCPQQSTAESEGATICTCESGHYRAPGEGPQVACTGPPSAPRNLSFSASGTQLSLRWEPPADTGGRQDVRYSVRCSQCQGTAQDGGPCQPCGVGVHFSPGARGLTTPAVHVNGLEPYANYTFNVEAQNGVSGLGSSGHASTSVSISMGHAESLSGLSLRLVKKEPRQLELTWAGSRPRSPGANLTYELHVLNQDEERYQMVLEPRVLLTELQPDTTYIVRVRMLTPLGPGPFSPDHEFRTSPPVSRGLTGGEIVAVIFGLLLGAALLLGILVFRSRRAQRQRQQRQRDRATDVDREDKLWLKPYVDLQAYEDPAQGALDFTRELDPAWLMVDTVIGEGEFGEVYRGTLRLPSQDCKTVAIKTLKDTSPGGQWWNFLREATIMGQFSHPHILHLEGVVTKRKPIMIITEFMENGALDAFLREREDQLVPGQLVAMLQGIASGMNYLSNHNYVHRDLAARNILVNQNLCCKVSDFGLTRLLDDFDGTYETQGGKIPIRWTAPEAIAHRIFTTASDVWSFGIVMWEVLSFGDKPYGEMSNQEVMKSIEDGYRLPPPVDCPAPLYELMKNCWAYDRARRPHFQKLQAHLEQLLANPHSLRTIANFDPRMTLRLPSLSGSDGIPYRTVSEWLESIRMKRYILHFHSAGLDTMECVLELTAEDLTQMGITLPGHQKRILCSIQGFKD

[5] = target: Serine/threonine-protein kinase Nek7 (Homo sapiens) (UniProt Q8TDX7); assay: Inhibition of human NEK7 using casein as substrate at 1 uM in presence of 32P-ATP by Hotspot assay relative to control; values are per cent of control
Serine/threonine-protein kinase Nek7 (Homo sapiens), sequence (Q8TDX7 whole entry, looked up): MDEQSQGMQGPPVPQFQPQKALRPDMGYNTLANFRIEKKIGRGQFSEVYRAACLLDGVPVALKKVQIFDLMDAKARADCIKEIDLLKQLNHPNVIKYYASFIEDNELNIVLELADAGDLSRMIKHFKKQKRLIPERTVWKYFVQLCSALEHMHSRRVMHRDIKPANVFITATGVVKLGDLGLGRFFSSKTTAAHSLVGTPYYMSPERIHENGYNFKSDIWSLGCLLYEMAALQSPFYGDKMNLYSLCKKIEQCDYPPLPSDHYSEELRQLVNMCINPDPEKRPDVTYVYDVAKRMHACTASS

[6] = target: T2, Ephrin type-A receptor 8 (Homo sapiens) (UniProt P29322); assay: Inhibition of human EPHA8 using poly[Glu:Tyr] (4:1) as substrate at 1 uM in presence of 32P-ATP by Hotspot assay relative to control; values are per cent of control
T2 sequence (whole entry): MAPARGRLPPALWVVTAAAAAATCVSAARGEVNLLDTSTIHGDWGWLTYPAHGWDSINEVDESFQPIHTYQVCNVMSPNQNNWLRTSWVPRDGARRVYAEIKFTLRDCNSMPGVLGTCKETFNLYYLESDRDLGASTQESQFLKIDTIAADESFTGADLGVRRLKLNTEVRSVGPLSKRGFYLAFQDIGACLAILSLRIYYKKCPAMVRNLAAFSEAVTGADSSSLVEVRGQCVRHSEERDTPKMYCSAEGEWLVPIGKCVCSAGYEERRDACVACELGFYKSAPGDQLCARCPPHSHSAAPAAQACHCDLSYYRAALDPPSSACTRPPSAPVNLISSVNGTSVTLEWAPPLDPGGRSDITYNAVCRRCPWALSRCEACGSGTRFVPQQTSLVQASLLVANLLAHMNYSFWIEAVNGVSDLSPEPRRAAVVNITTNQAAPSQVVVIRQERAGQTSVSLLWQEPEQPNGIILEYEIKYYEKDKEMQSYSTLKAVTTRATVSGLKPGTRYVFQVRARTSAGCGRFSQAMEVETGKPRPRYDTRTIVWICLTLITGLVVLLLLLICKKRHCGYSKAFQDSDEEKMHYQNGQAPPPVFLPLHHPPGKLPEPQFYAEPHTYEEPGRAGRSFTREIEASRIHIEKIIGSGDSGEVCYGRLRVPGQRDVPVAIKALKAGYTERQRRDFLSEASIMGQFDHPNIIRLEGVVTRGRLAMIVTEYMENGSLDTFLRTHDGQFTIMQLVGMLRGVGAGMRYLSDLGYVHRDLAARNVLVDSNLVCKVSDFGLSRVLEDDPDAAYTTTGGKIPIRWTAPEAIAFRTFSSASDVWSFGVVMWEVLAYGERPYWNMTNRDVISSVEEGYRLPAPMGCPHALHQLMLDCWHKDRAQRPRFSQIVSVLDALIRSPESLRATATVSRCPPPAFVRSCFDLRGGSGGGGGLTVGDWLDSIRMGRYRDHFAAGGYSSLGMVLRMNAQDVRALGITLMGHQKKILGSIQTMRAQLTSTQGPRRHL

[7] = target: Serine/threonine-protein kinase N1 (Homo sapiens) (UniProt Q16512); assay: Inhibition of human PKN1/PRK1 using KKLNRTLSVA as substrate at 1 uM in presence of 32P-ATP by Hotspot assay relative to control; values are per cent of control
Serine/threonine-protein kinase N1 (Homo sapiens), sequence (Q16512 2-942 limits assumed): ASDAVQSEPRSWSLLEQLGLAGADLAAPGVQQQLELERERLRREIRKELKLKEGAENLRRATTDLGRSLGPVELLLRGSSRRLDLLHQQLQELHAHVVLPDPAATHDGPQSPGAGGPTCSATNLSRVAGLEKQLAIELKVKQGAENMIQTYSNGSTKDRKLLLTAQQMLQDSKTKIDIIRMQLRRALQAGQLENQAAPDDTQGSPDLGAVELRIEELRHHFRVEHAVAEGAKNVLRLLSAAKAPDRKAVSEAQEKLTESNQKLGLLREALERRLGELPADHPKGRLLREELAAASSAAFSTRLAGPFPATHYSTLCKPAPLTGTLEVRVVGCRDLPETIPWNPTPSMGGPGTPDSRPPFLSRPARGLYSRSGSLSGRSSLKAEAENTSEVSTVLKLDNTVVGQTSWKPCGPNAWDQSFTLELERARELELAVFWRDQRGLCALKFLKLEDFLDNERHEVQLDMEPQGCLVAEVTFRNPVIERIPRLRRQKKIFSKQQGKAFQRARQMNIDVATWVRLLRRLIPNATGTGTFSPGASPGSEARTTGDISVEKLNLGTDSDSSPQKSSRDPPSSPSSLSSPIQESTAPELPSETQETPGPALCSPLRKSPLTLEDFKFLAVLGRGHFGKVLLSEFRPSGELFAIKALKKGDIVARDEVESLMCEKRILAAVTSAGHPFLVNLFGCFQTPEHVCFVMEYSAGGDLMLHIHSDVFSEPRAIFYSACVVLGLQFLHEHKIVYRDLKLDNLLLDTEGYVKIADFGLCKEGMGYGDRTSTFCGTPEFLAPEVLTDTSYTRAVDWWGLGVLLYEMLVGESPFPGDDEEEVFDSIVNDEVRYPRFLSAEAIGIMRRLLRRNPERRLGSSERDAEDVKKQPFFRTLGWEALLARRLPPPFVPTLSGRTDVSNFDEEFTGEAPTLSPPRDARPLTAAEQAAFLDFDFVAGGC

[8] = target: Ribosomal protein S6 kinase beta-2 (Homo sapiens) (UniProt Q9UBS0); assay: Inhibition of human p70S6Kb/RPS6KB2 using KKRNRTLTK as substrate at 1 uM in presence of 32P-ATP by Hotspot assay relative to control; values are per cent of control
Ribosomal protein S6 kinase beta-2 (Homo sapiens), sequence (Q9UBS0 whole entry): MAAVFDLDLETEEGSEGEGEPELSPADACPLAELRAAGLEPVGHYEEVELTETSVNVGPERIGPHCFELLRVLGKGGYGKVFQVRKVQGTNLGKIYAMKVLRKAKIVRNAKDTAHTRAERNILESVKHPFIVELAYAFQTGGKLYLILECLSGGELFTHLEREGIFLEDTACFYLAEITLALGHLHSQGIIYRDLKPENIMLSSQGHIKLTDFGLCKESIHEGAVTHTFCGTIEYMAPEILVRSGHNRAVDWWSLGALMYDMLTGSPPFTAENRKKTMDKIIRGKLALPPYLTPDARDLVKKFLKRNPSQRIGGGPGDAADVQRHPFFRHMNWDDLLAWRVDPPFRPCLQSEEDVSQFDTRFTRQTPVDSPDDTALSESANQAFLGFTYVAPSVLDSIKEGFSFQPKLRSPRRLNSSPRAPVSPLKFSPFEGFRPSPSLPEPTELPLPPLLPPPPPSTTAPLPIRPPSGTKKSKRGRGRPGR

[9] = target: Tyrosine-protein kinase HCK (Homo sapiens) (UniProt P08631); assay: Inhibition of human HCK using KVEKIGEGTYGVVYK as substrate at 1 uM in presence of 32P-ATP by Hotspot assay relative to control; values are per cent of control
Tyrosine-protein kinase HCK (Homo sapiens), sequence (P08631 2-526 limits assumed): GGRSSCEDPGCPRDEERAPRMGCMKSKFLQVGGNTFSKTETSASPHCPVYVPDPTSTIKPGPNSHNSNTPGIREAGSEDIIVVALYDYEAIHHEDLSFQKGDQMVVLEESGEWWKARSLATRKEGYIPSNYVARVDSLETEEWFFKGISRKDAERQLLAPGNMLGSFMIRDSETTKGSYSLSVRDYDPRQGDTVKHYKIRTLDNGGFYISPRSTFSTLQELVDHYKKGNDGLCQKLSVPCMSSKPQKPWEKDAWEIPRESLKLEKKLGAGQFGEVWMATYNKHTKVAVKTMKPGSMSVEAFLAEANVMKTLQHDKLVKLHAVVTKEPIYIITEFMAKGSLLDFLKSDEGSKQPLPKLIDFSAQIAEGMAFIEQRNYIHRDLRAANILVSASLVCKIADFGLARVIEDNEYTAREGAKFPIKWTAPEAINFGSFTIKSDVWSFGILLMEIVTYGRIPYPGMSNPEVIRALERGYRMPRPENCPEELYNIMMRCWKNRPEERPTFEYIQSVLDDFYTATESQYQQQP

Casein kinase I isoform gamma-3 (Homo sapiens), sequence (Q9Y6M4 whole entry, looked up, canonical isoform): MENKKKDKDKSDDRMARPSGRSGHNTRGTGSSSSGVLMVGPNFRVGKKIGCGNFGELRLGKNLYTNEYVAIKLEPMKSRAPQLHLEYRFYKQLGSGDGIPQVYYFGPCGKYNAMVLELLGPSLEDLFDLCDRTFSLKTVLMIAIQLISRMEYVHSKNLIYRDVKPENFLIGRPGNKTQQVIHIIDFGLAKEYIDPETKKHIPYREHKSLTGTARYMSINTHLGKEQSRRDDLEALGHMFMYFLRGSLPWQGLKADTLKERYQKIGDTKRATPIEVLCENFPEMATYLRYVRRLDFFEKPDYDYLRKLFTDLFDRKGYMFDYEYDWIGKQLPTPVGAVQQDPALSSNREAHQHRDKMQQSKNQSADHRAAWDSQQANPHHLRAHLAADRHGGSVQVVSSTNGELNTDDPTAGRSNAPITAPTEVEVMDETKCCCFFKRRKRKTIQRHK

SMILES | residual activity [1] | residual activity [2] | residual activity [3] | residual activity [4] | residual activity [5] | residual activity [6] | residual activity [7] | residual activity [8] | residual activity [9]
Cc1cc(-c2cnc(N)c3c(-c4ccc5scnc5c4)csc23)n(C)n1 | 88.2% | 96.6% | 96.1% | 56.5% | 94.9% | 62.7% | 96.7% | 95.1% | 41%
CNC(=O)c1ccc2c(c1)ncn2-c1ccc(CC(=O)OC(C)(C)C)cc1 | 97.5% | 101% | 98.4% | 84.8% | 91.5% | 96.7% | 97.7% | 92.3% | 76.1%
CC(C)S(=O)(=O)c1ccc2nccc(Nc3ccc4scnc4c3)c2c1 | 103% | 90.8% | 94.3% | 53.9% | 95.6% | 42.8% | 95.3% | 92.8% | 23.1%
